From patent US12121504B1, “Method for producing 1,3-diolein from biomass” (KING SAUD UNIVERSITY, priority 2024, dated 2024)

Tested on: C. auris strain
Format: cell-based, Candida auris
Conditions: C. auris strain used in the anti-fungal test
Description: The biological activity of compound 1 (linoleic acid) as an antifungal agent against fluconazole- and caspofungin-resistant C. auris was evaluated using disk diffusion assay for determining the inhibition zone (mm) and two-fold serial microdilution assay for determining the minimal inhibitory concentration (MIC) (mg/mL) according to Dilika et al., (2000) and Zheng et al., (2005). The hexadecanoic acid and isopropyl myristate were prepared (both compounds (data not shown) were used in this stage as a negative control).

Structure (SMILES)	susceptibility of C. auris strain to standard anti-fungal drug
CC[C@H](C)C[C@H](C)CCCCCCCCC(=O)N[C@H]1C[C@@H](O)[C@@H](NCCN)NC(=O)[C@@H]2[C@@H](O)CCN2C(=O)[C@H]([C@H](O)CCN)NC(=O)[C@H]([C@H](O)[C@@H](O)c2ccc(O)cc2)NC(=O)[C@@H]2C[C@@H](O)CN2C(=O)[C@H]([C@@H](C)O)NC1=O [caspofungin]	resistant
OC(Cn1cncn1)(Cn1cncn1)c1ccc(F)cc1F [fluconazole]	resistant
